Measurements published in patent US20210078958A1, “QUINAZOLINE DERIVATIVE AND USE THEREOF” (MEDSHINE DISCOVERY INC., priority 2017, published 2021).
Like-named read-outs stand apart in the source and are kept apart here.

Experiments:
[1] = test system: NCI-N87 cell; assay: inhibitory activity on cell proliferation (Cell-Titer-Glo), NCI-N87; assay type: cell-based; settings: Homo sapiens, NCI-N87, 72 h; incubation for 3 days, Cell-Titer-Glo
Method in brief: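 Cells seeded at 1000 per well, then dosed by acoustic transfer from a 4 mM DMSO intermediate stock (final concentration not stated) and incubated 3 days at 37° C, 5% CO2. Viability read as ATP-dependent Cell-Titer-Glo luminescence after 30 min room-temperature equilibration and 10 min reagent incubation.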

[2] = target: HER1 (ErbB1) (Homo sapiens, UniProt P00533); assay: in vitro enzyme activity, HER1 (ErbB1); assay type: biochemical; settings: human ErbB1, [γ-33P]ATP, poly(Glu, Tyr) substrate
Sequence of HER1 (ErbB1) (P00533 25-1210): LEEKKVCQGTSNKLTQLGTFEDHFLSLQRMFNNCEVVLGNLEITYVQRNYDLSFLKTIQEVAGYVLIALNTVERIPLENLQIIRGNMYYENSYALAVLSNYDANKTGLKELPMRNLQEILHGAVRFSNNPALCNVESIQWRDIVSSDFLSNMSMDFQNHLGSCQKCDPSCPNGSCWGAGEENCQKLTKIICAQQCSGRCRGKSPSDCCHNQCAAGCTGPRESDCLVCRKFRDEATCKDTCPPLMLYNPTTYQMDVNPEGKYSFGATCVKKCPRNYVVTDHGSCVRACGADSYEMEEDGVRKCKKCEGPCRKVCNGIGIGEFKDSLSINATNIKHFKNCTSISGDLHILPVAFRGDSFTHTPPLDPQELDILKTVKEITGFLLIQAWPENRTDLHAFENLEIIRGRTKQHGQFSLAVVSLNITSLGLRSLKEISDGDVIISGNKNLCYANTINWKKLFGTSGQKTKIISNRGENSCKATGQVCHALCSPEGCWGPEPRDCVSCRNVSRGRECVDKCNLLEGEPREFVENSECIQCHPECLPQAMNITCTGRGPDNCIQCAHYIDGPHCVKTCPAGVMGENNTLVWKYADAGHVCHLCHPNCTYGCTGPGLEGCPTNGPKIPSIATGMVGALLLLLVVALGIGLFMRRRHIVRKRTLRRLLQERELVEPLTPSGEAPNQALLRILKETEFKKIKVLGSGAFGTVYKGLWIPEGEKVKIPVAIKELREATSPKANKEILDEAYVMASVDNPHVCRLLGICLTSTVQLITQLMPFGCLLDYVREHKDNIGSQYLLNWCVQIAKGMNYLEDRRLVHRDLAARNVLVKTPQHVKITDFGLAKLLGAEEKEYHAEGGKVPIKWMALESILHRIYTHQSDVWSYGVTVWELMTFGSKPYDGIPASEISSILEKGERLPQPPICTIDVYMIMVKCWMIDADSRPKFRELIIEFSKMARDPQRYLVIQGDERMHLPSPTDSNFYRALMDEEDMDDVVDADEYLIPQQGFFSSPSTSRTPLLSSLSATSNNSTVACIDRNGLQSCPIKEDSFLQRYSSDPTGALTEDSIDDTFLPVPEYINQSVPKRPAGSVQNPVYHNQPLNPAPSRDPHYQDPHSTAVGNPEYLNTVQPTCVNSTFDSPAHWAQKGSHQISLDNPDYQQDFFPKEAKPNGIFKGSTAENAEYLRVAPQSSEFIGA
Method in brief: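 Radiometric filter-binding assay: human ErbB1, ErbB2 or ErbB4 (4-20 ng) with poly(Glu,Tyr) 4:1 substrate, MnCl2 and [γ-33P]ATP, 10 min at 30 °C, stopped with 3% phosphoric acid. Incorporated 33P counted by scintillation and compared with internal control CPM.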

[3] = test system: OE21 cell; assay: inhibitory activity on cell proliferation (Cell-Titer-Glo), OE21; assay type: cell-based; settings: Homo sapiens, OE21, 72 h, incubation for 3 days
Source text: Purpose of the assay: to detect the inhibitory activity of the test compounds on cell proliferation.
Principle of the assay: the luciferase in a Cell-Titer-Glo reagent produces oxidized luciferin with luciferin, oxygen and ATP as reaction substrates, and releases energy in the form of light. Since the luciferase reaction requires ATP, the total amount of light generated by the reaction is proportional to the total amount of ATP that reflects cell viability.
Cell Titer-Glo cell viability assay kit with luminescence (Promega #G7573)
According to the schematic diagram of the cell seed plate, cells were seeded in a 384- or 96-well plate at a density of 1000 cells per well and 25 μL per well, and 25 μL of PBS was added to the wells near edge of the place where no cells were seeded.
(1) The stock solution of the compounds has a concentration of 10 mM, and the compounds were diluted with DMSO to an initial concentration of 4 mM. The compounds were added to the plate with stock solution of compounds, 9 μL per well.
(2) The compounds were diluted with an ECHO liquid workstation, where 125 nL of compounds were added to each well of the cell plate, 125 nL of DMSO was added to each of the cell well in columns 2 and 23, and 125 nL of DMSO was added to each PBS well in columns 1 and 24.
2.3 After addition of the compounds, the cell plate was centrifuged at 1000 rpm for 1 min, and then placed in a 37° C., 5% CO2 incubator for incubation for 3 days.
The cell plate was taken out from the incubator and equilibrated at room temperature for 30 minutes. 25 μL of Cell-Titer-Glo reagent was added to each well, shaken for one minute to allow well mixed, and centrifuged at 1000 rpm for 1 minute. After 10 minutes, the plate was read on PerkinElmer Envision, and the […] reading time was set to 0.2 second.

[4] = target: T1, CYP2D6 (Homo sapiens, UniProt P10635); assay: inhibition of CYP enzyme activity in human liver microsome, CYP2D6; assay type: in vitro ADME
T1 construct: in the assay of CYP enzyme activity in human liver microsome; from tissue; host or cells: human liver microsome
T1 sequence (P10635 whole entry): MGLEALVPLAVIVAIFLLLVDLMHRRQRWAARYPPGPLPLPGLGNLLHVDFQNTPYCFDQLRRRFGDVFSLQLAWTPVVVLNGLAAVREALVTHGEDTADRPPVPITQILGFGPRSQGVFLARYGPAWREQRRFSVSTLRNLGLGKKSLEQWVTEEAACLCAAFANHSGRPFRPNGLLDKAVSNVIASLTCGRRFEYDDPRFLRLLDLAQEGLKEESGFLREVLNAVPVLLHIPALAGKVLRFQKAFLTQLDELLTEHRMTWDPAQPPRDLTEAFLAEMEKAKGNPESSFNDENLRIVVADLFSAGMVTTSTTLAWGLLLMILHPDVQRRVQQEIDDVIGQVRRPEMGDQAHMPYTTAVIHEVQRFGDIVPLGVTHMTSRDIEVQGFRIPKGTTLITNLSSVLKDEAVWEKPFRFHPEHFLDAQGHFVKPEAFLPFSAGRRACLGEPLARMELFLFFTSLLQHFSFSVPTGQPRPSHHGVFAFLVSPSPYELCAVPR
Source text: (§1) The results of the compounds disclosed herein and the reference compound Poziotinib in the assay of CYP enzyme activity in human liver microsome were shown in the following table (Table 8).

[5] = target: T2, CYP1A2 (Homo sapiens, UniProt P05177); assay: inhibition of CYP enzyme activity in human liver microsome, CYP1A2; assay type: in vitro ADME
T2 construct: in the assay of CYP enzyme activity in human liver microsome; from tissue; host or cells: human liver microsome
T2 sequence (P05177 1-516): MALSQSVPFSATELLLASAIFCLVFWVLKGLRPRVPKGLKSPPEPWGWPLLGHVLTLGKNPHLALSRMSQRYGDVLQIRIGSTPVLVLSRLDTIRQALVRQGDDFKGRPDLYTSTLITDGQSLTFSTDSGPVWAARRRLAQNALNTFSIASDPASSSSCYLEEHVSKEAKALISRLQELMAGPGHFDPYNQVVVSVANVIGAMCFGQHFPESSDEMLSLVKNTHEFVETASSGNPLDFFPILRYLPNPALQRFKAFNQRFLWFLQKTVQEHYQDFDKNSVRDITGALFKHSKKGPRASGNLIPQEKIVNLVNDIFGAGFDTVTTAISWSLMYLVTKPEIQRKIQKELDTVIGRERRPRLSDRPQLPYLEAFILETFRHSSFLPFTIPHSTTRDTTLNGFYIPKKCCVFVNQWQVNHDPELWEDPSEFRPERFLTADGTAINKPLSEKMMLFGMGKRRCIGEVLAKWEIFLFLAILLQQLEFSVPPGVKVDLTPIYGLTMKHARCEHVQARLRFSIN
Source text: as §1

[6] = Assay Example 7: pharmacokinetics in mice; assay type: in vivo; settings: mouse, female BALB/c mice, plasma, dose not given; for Tmax / half-life: oral; for AUC(0-t) / Cmax: oral plasma exposure
Protocol: Purpose of the assay: this assay aims to investigate in vivo plasma pharmacokinetics of the example compounds disclosed herein and the reference compound in female BALB/c mice after the single intravenous injection and intragastric administration thereof.
Animals of the assay: female BALB/c nude mice, 7-9 weeks old, weighted 17-23 grams; supplier: shanghai sippr bk laboratory animals Ltd.
Sample collection: at each time point, a 0.03 mL blood sample was collected from the saphenous vein of the test animal by puncture, and the actual blood collection time was recorded. All blood samples were added into commercial EDTA-K2 anticoagulation tubes with a specification of 1.5 mL (the supplier was Jiangsu KANGJIAN Medical Apparatus Co., Ltd.). Within half an hour after the blood sample was collected, the blood sample was centrifuged at 3000 g at 4° C. for 10 minutes, and the supernatant plasma was drawn, quickly placed in dry ice, and stored in a refrigerator at −80° C. for LC-MS/MS analysis.
Data analysis: Plasma concentrations were processed using a non-compartmental model of WinNonlin™ Version6.3 (Pharsight, MountainView, Calif.) pharmacokinetic software, and pharmacokinetic parameters Cmax, Tmax, T1/2, and AUC0-last were calculated using a linear log trapezoid method.

SMILES | IC50 [1] [nM] | IC50 [2] [nM] | IC50 [3] [nM] | IC50 [4] [nM] | activity on CYP2D6, times better than that of the reference compound ([4]; versus Poziotinib) [times] | IC50 [5] [nM] | inhibition of CYP enzyme CYP1A2 ([5]; microsomes) | Tmax [6] [h] | half-life [6] [h] | AUC(0-t) [6] [µM·h] | Cmax [6] [µM] | inhibition of CYP enzyme CYP1A2 ([5]; human liver microsome) | IC50 ([5]; human liver microsome, read-out: inhibition of CYP enzyme CYP1A2) [nM]
C=CC(=O)N1[C@@H]2CC[C@H]1C[C@H](Oc1cc3c(Nc4ccc(Cl)c(Cl)c4F)ncnc3cc1OC)C2 [Example 8] | 0.28 | 6 | 0.47 | – | – | – | – | – | – | – | – | – | –
C=CC(=O)N1[C@@H]2CC[C@H]1C[C@H](Nc1cc3c(Nc4ccc(Cl)c(Cl)c4F)ncnc3cc1OC)C2 [Example 38] | 0.46 | 8 | 0.52 | 6000 | 6 | > 50000 | no inhibitory activity | 2 | 3.2 | 122 | 10.6 | – | –
C=CC(=O)N1CCC(Oc2cc3c(Nc4ccc(Cl)c(Cl)c4F)ncnc3cc2OC)CC1 [Poziotinib, reference compound] | – | – | – | 1000 | – | – | – | 0.25 | 2.3 | 97.9 | 17.3 | no inhibitory activity | > 50000
